# In patent US7462614B2, “Imidazotriazine compounds” (Smithkline Beecham Corporation, priority 2003, dated 2008):
# Target: T1, truncated human PLK1 (kinase domain) (Homo sapiens, UniProt P53350)
# T1 construct: made in house; host or cells: baculovirus-infected T. ni insect cells
# Experiment: Assay for Inhibition of PLK1 (33P SPA enzyme activity)
# Type: biochemical
# Conditions: 1 μM ATP, 2 nM enzyme; read-out: Ave pIC50 PLK Enzyme Inhibition (converted)
# Description: I. Assay for Inhibition of PLK1
# A. Preparation of 6× N-Terminal His-Tagged PLK Kinase Domain
# All procedures are performed at 4° C. Cells are lysed in 25 mM HEPES, 200 mM NaCl, 25 mM imidazole; pH 8.0. The homogenate is centrifuged at 14K rpm in a SLA-1500 rotor for 40 min and the supernatant filtered through a 1.2 micron filter. The supernatant is loaded onto a Nickel chelating Sepharose (Amersham Pharmacia) column and washed with 25 mM HEPES, 500 mM NaCl, 25 mM imidazole; pH 8.0. […] PLK is concentrated using a 10 kDa molecular weight cutoff membrane and then loaded onto a Superdex 75 gel filtration (Amersham BioSciences) column equilibrated in 25 mM HEPES, 1 mM DTT, 500 mM NaCl; pH 8.0. Fractions containing PLK are determined by SDS-PAGE. PLK is pooled, aliquoted and stored at […]. Samples are quality controlled using mass spectrometry.
# B. Enzyme Activity±Inhibitors is Determined As Follows:
# Compounds are added to the plate (1 μL in 100% DMSO).
# Immediately upon addition of enzyme and thorough mixing, add 20 uL per well into 384-well white plates containing compounds and controls. […] The enzymatic reaction is stopped with 50 μl of bead mix (50 mM EDTA, 2 mg/ml Streptavidin-coated SPA beads in Standard Dulbecco's PBS (without Mg^2+and Ca^2+), and 60 μM ATP).
# T1 sequence (P53350 21-346): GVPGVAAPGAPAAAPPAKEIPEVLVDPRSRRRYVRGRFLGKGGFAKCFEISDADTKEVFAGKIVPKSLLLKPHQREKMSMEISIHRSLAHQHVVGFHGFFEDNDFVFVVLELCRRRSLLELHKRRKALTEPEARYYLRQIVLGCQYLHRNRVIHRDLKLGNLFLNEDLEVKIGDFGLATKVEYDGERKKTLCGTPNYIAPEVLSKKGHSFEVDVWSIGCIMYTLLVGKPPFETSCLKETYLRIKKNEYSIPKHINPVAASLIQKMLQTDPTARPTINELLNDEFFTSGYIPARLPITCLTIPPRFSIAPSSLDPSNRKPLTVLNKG
row,IC50 [µM],SMILES
1,0.1 to 10,"COc1ccc(Nc2ncc3c(C)nc(-c4ccccc4)n3n2)cc1 [Example 104, 5-Methyl-N-[4-(methyloxy)phenyl]-7-phenylimidazo[5,1-f][1,2,4]triazin-2-amine]"
2,0.1 to 10,"COc1cc(Nc2ncc3c(C)nc(-c4ccccc4)n3n2)cc(OC)c1 [Example 93, N-[3,5-Bis(methyloxy)phenyl]-5-methyl-7-phenylimidazo[5,1-f][1,2,4]triazin-2-amine]"
3,0.1 to 10,COc1cc(Nc2ncc3c(C)nc(-c4ccccc4Br)n3n2)cc(OC)c1OC [Example 3]
4,0.1 to 10,"COc1ccccc1-c1nc(C)c2cnc(Nc3cc(OC)c(OC)c(OC)c3)nn12 [Example 21, 7-(2-Methoxyphenyl)-5-methyl-N-(3,4,5-trimethoxyphenyl)-imidazo[5,1-f][1,2,4]triazin-2-amine]"
5,0.1 to 10,"COc1ccc(Nc2ncc3c(C)nc(-c4ccsc4)n3n2)cc1 [Example 79, 5-Methyl-N-[4-(methyloxy)phenyl]-7-(3-thienyl)imidazo[5,1-f][1,2,4]triazin-2-amine]"
6,0.1 to 10,"COc1ccc(Nc2ncc3c(C)nc(-c4cccc(C(F)(F)F)c4)n3n2)c(OC)c1 [Example 54, N-(2,4-Dimethoxyphenyl)-5-methyl-7-[3-(trifluoromethyl)phenyl]-imidazo[5,1-f][1,2,4]triazin-2-amine]"
7,0.1 to 10,"COc1cc(Nc2ncc3c(C)nc(-c4ccc(Br)s4)n3n2)cc(OC)c1OC [Example 13, 7-(5-Bromothien-2-yl)-5-methyl-N-(3,4,5-trimethoxyphenyl)imidazo-[5,1-f][1,2,4]triazin-2-amine]"
8,0.1 to 10,"COc1ccc(Nc2ncc3c(C)nc(-c4cccc(F)c4)n3n2)cc1 [Example 89, 7-(3-Fluorophenyl)-5-methyl-N-[4-(methyloxy)phenyl]imidazo[5,1-f][1,2,4]triazin-2-amine]"
9,> 10,"COc1cc(Nc2ncc3c(C)nc(-c4cccc(Nc5ccc(CN6CCN(C)CC6)cc5)c4)n3n2)cc(OC)c1OC [Example 68, 5-Methyl-7-[3-({4-[(4-methylpiperazin-1-yl)methyl]phenyl}-amino)phenyl]-N-/(3,4,5-trimethoxyphenyl)imidazo[5,1-f][1,2,4]triazin-2-amine]"
10,< 0.1,"COc1cc(Nc2ncc3c(C)nc(-c4cccc(/C=C/C(N)=O)c4)n3n2)cc(OC)c1OC [Example 17, (2E)-3-(3-{5-Methyl-2-[(3,4,5-trimethoxyphenyl)amino]imidazo[5,1-f][1 2,4]triazin-7-yl}phenyl)prop-2-enamide]"
11,0.1 to 10,"COc1ccc(Nc2ncc3c(C)nc(-c4cccc(OC)c4)n3n2)cc1 [Example 74, 5-Methyl-7-[3-(methyloxy)phenyl]-N-[4-(methyloxy)phenyl]-imidazo[5,1-f][1,2,4]triazin-2-amine]"
12,0.1 to 10,"COc1ccc(Nc2ncc3c(C)nc(CC4CCCCC4)n3n2)cc1 [Example 91, 7-(Cyclohexylmethyl)-5-methyl-N-[4-(methyloxy)phenyl]-imidazo[5,1-f][1,2,4]triazin-2-amine]"
13,0.1 to 10,"COc1cc(Nc2ncc3c(C)nc(-c4ccc5[nH]ccc5c4)n3n2)cc(OC)c1OC [Example 37, 7-(1H-Indol-5-yl)-5-methyl-N-(3,4,5-trimethoxyphenyl)imidazo-[5,1-f][1,2,4]triazin-2-amine]"
14,0.1 to 10,"Cc1nc(-c2ccccc2)n2nc(Nc3ccc([N+](=O)[O-])cc3)ncc12 [Example 18, 5-Methyl-N-(4-nitrophenyl)-7-phenylimidazo[5,1-f][1,2,4]triazin-2-amine]"
15,> 10,"COc1cc(Nc2ncc3c(C)nc(-c4ccccc4NC(=O)C(C)(C)C)n3n2)cc(OC)c1OC [Example 6, 2,2-Dimethyl-N-(2-{5-methyl-2-[(3,4,5-trimethoxyphenyl)amino]-imidazo[5,1-f][1,2,4]triazin-7-yl}phenyl)propanamide]"
16,0.1 to 10,"COc1cc(Nc2ncc3c(C)nc(-c4cccn4C)n3n2)cc(OC)c1OC [Example 34, 5-Methyl-7-(1-methyl-1H-pyrrol-2-yl)-N-(3,4,5-trimethoxyphenyl)-imidazo[5,1-f][1,2,4]triazin-2-amine]"
